Molecular target: T1, PI3Kγ (p101/p110γ protein) (Homo sapiens, UniProt P48736)
T1 construct: HA; made in house; host or cells: Spodoptera frugiperda (Sf9) cells, baculovirus co-infection
Test: PI3Kγ In Vitro Kinase Assay
Assay type: biochemical
Settings: purified recombinant p101/p110γ with G protein β1/γ2 subunits; 20 μM ATP, 25 μM PIP2; 20 minutes at room temperature
Procedure, shortened: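 Reactions ran 20 min at room temperature, pairing lipid micelles (25 μM PIP2, 300 μM PE, 0.02% Na-cholate, 10 mM MgCl2) with 20 μM ATP including [γ-32P]ATP. The enzyme was recombinant p101/p110γ (2.7 nM) with G protein β1/γ2 (57.7 nM). [32P]PIP3 product was stopped with H3PO4, filtered and scintillation counted.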

T1 sequence (P48736 whole entry, species assumed): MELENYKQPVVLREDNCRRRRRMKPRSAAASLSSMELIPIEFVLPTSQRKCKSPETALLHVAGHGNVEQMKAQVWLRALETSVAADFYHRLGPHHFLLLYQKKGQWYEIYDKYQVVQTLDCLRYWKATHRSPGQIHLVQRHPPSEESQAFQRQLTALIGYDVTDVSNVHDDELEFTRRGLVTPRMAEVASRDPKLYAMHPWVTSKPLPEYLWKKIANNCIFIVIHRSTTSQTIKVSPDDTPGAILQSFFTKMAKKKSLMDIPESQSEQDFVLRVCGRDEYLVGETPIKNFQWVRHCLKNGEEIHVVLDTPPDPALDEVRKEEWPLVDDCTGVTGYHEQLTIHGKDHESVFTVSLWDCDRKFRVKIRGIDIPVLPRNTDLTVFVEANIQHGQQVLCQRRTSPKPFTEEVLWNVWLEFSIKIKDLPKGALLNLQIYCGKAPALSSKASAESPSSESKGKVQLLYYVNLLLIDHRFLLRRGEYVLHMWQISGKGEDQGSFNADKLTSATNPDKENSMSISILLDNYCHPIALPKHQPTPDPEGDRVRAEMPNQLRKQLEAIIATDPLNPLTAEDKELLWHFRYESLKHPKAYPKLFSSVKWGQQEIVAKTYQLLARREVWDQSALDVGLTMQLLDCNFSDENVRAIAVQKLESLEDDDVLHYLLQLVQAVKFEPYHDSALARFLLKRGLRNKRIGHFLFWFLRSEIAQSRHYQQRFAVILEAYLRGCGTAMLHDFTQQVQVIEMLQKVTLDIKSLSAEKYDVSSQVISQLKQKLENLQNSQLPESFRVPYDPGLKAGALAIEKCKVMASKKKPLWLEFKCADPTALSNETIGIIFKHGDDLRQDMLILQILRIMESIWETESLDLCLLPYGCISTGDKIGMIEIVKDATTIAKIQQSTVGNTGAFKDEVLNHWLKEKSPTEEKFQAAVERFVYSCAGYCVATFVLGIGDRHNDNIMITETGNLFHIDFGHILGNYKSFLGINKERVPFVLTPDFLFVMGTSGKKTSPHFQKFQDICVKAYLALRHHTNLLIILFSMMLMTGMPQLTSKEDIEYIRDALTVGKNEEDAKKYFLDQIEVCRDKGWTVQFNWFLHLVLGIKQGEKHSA
T1 sequence (Q8WYR1 whole entry partner, species assumed): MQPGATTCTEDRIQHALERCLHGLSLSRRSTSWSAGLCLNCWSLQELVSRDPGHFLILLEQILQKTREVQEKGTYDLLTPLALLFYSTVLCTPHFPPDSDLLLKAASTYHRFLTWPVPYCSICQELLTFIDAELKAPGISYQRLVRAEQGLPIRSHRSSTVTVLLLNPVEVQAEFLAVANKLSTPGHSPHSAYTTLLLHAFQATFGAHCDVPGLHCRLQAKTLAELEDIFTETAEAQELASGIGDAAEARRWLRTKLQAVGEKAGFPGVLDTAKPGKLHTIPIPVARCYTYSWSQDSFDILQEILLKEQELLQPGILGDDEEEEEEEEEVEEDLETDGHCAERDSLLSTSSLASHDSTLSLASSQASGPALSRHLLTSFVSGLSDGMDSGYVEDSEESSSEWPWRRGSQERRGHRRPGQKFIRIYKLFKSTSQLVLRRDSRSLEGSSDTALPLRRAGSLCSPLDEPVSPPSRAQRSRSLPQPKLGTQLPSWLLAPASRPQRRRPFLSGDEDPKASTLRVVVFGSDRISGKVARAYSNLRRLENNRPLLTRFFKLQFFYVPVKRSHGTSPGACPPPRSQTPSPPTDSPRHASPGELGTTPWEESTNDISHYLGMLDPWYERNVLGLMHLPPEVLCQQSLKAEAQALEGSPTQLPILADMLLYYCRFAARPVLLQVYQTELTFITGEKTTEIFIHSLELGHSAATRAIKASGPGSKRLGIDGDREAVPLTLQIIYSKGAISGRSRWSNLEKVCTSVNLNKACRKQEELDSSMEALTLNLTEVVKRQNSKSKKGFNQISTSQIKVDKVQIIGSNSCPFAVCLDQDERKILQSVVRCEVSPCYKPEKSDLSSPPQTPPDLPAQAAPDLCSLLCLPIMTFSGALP

| Compound | IC50 [nM] |
| --- | --- |
| O=C1NC(=S)SC1=Cc1ccc2c(c1)N(Cc1cc(Br)cc(Br)c1)C(=O)CO2 [Example 217, 4-(3,5-Dibromo-benzyl)-6-(4-oxo-2-thioxo-thiazolidin-5-ylidenemethyl)-4H-1,4-benzoxazin-3-one] | 42 |
| O=C1NC(=S)SC1=Cc1ccc2c(c1)N(Cc1cc(F)c(O)c(F)c1)C(=O)CO2 [Example 295, 4-(3,5-Difluoro-4-hydroxy-benzyl)-6-(4-oxo-2-thioxo-thiazolidin-5-ylidenemethyl)-4H-benzo[1,4]oxazin-3-one] | 4 |
| CC(C)S(=O)(=O)c1cccc(CN2C(=O)COc3ccc(C=C4SC(=O)NC4=O)cc32)c1 [Example 252, 5-{3-Oxo-4-[3-(propane-2-sulfonyl)-benzyl]-3,4-dihydro-2H-1,4-benzoxazin-6-ylmethylene}-thiazolidine-2,4-dione] | 21 |
| CN1C(=O)COc2ccc(C=C3SC(=S)NC3=O)cc21 [Example 2, 4-Methyl-6-(4-oxo-2-thioxo-thiazolidin-5-ylidenemethyl)-4H-1,4-benzoxazin-3-one] | 45 |
| NC(=O)c1ccc(CN2C(=O)COc3ccc(C=C4SC(=S)NC4=O)cc32)cc1 [Example 176, 4-[3-Oxo-6-(4-oxo-2-thioxo-thiazolidin-5-ylidenemethyl)-2,3-dihydro-1,4-benzoxazin-4-ylmethyl]-benzamide] | 59 |
| O=C1NC(=S)SC1=Cc1ccc2c(c1)N(Cc1ccccc1OC(F)(F)F)C(=O)CO2 [Example 166, 6-(4-Oxo-2-thioxo-thiazolidin-5-ylidenemethyl)-4-(2-trifluoromethoxy-benzyl)-4H-1,4-benzoxazin-3-one] | 20 |
| O=C1NC(=S)SC1=Cc1ccc2c(c1)N(Cc1cccc(OC(F)F)c1)C(=O)CO2 [Example 164, 4-(3-Difluoromethoxy-benzyl)-6-(4-oxo-2-thioxo-thiazolidin-5-ylidenemethyl)-4H-1,4-benzoxazin-3-one] | 13 |
| O=C1NC(=S)S/C1=C\c1cnc2c(c1)N(CCc1ccccc1)C(=O)CO2 [Example 267, 7-[4-Oxo-2-thioxo-thiazolidin-(5Z)-ylidenemethyl]-1-phenethyl-1H-pyrido[2,3-b][1,4]oxazin-2-one] | 460 |
| Cc1cc(C)cc(C(C)N2C(=O)COc3ccc(C=C4SC(=S)NC4=O)cc32)c1 (centres unmarked) [Example 218, 4-[1-(3,5-Dimethyl-phenyl)-ethyl]-6-(4-oxo-2-thioxo-thiazolidin-5-ylidenemethyl)-4H-1,4-benzoxazin-3-one] | 55 |
| CN1CCN(Cc2ccc(CN3C(=O)COc4ccc(C=C5SC(=S)NC5=O)cc43)cc2)CC1 [Example 33, 4-[4-(4-Methyl-piperazin-1-ylmethyl)-benzyl]-6-(4-oxo-2-thioxo-thiazolidin-5-ylidenemethyl)-4H-1,4-benzoxazin-3-one] | 4 |
| COc1ccc(CN2C(=O)COc3ccc(C=C4SC(=S)NC4=O)cc32)cc1C(F)(F)F [Example 167, 4-(4-Methoxy-3-trifluoromethyl-benzyl)-6-(4-oxo-2-thioxo-thiazolidin-5-ylidenemethyl)-4H-1,4-benzoxazin-3-one] | 10 |
| O=C1NC(=S)SC1=Cc1cc(F)c2c(c1)N(Cc1ccc(CN3CCCCC3)cc1)C(=O)CO2 [Example 73, 8-Fluoro-6-(4-oxo-2-thioxo-thiazolidin-5-ylidenemethyl)-4-(4-piperidin-1-ylmethyl-benzyl)-4H-1,4-benzoxazin-3-one] | 7 |
| O=C1NC(=O)C(=Cc2ccc3c(c2)N(Cc2ccc(Cl)c(Cl)c2)C(=O)CO3)S1 [Example 246, 5-[4-(3,4-Dichloro-benzyl)-3-oxo-3,4-dihydro-2H-benzo[1,4]oxazin-6-ylmethylene]-thiazolidine-2,4-dione] | 3 |
| CS(=O)(=O)c1cccc(CN2C(=O)COc3ccc(/C=C4\SC(=O)NC4=O)cc32)c1 [Example 265, 5-[1-[4-(3-Methanesulfonyl-benzyl)-3-oxo-3,4-dihydro-2H-benzo[1,4]oxazin-6-yl]-meth-(Z)-ylidene]-thiazolidine-2,4-dione] | 18 |
| O=C1NC(=S)SC1=Cc1cc(F)c2c(c1)N(Cc1ccc3nccnc3c1)C(=O)CO2 [Example 315, 8-Fluoro-6-(4-Oxo-2-thioxo-thiazolidin-5-ylidenemethyl)-4-quinoxalin-6-ylmethyl-4H-benzo[1,4]oxazin-3-one; Compound with Ethane-1,2-diamine] | 44 |
| O=C1NC(=S)SC1=Cc1ccc2c(c1)N(CCCCCc1ccccc1)C(=O)CO2 [Example 175, 6-(4-Oxo-2-thioxo-thiazolidin-5-ylidenemethyl)-4-(5-phenyl-pentyl)-4H-1,4-benzoxazin-3-one] | 4 |

| Compound | IC50 [nM] |
| --- | --- |
| O=C1NC(=S)SC1=Cc1ccc2c(c1)N(Cc1ccc(Cl)c(Cl)c1)C(=O)CS2 [Example 198, 4-(3,4-Dichloro-benzyl)-6-(4-oxo-2-thioxo-thiazolidin-5-ylidenemethyl)-4H-1,4-benzothiazin-3-one] | 6 |
| O=C(O)CN1C(=O)C(=Cc2cc(F)c3c(c2)N(Cc2ccc(F)c(Cl)c2)C(=O)CO3)SC1=S [Example 296, {5-[4-(3-Chloro-4-fluoro-benzyl)-8-fluoro-3-oxo-3,4-dihydro-2H-benzo[1,4]oxazin-6-ylmethylene]-4-oxo-2-thioxo-thiazolidin-3-yl}-acetic acid; compound with ethane-1,2-diamine] | 3850 |
| CC(C)(C)c1cc(CN2C(=O)CSc3ccc(C=C4SC(=S)NC4=O)cc32)cc(C(C)(C)C)c1 [Example 82, 4-(3,5-Di-tert-butyl-benzyl)-6-(4-oxo-2-thioxo-thiazolidin-5-ylidenemethyl)-4H-1,4-benzothiazin-3-one] | 3740 |
| O=C1NC(=S)SC1=Cc1ccc2c(c1)N(Cc1ccc(CN3CCOCC3)cc1)C(=O)CO2 [Example 20, 4-(4-Morpholin-4-ylmethyl-benzyl)-6-(4-oxo-2-thioxo-thiazolidin-5-ylidenemethyl)-4H-1,4-benzoxazin-3-one] | 3 |
| O=C1NC(=S)SC1=Cc1ccc2c(c1)N(CC1CC3C=CC1C3)C(=O)CO2 (centres unmarked) [Example 171, 4-Bicyclo[2.2.1]hept-5-en-2-ylmethyl-6-(4-oxo-2-thioxo-thiazolidin-5-ylidenemethyl)-4H-1,4-benzoxazin-3-one] | 15 |
| O=C1NC(=S)SC1=Cc1ccc2c(c1)N(Cc1ccc3ccccc3c1)C(=O)CO2 [Example 11, 4-Naphthalen-2-ylmethyl-6-(4-oxo-2-thioxo-thiazolidin-5-ylidenemethyl)-4H-1,4-benzoxazin-3-one] | 61 |
| CS(=O)(=O)c1ccc(CN2C(=O)COc3ccc(C=C4SC(=S)NC4=O)cc32)cc1 [Example 192, 4-(4-Methanesulfonyl-benzyl)-6-(4-oxo-2-thioxo-thiazolidin-5-ylidenemethyl)-4H-1,4-benzoxazin-3-one] | 8 |
| O=C1NC(=S)SC1=Cc1cc(Cl)c2c(c1)N(Cc1ccc(CN3CCCCC3)cc1)C(=O)CO2 [Example 79, 8-Chloro-6-(4-oxo-2-thioxo-thiazolidin-5-ylidenemethyl)-4-(4-piperidin-1-ylmethyl-benzyl)-4H-1,4-benzoxazin-3-one; compound with Toluene-4-sulfonic acid] | 20 |
| CC(C)(C)c1cccc(CN2C(=O)COc3ccc(C=C4SC(=S)NC4=O)cc32)c1 [Example 263, 4-(3-tert-Butyl-benzyl)-6-(4-oxo-2-thioxo-thiazolidin-5-ylidenemethyl)-4H-1,4-benzoxazin-3-one] | 18 |
| O=C1NC(=S)SC1=Cc1ccc2c(c1)N(Cc1ccc(OCc3ccccc3)cc1)C(=O)CO2 [Example 23, 4-(4-Benzyloxy-benzyl)-6-(4-oxo-2-thioxo-thiazolidin-5-ylidenemethyl)-4H-1,4-benzoxazin-3-one] | 5 |
| CC(C)(C)OC(=O)N1CCN(C(=O)CN2C(=O)COc3ccc(C=C4SC(=S)NC4=O)cc32)CC1 [Example 214, 4-{2-[3-Oxo-6-(4-oxo-2-thioxo-thiazolidin-5-ylidenemethyl)-2,3-dihydro-1,4-benzoxazin-4-yl]-acetyl}-piperazine-1-carboxylic acid tert-butyl ester] | 3180 |
| Cc1cc(CN2C(=O)COc3ccc(C=C4SC(=S)NC4=O)cc32)cc(C)n1 [Example 229, 4-(2,6-Dimethyl-pyridin-4-ylmethyl)-6-(4-oxo-2-thioxo-thiazolidin-5-ylidenemethyl)-4H-1,4-benzoxazin-3-one] | 20 |
| O=C1NC(=S)SC1=Cc1ccc2c(c1)N(Cc1cc(Cl)nc(Cl)c1)C(=O)CO2 [Example 225, 4-(2,6-Dichloro-pyridin-4-ylmethyl)-6-(4-oxo-2-thioxo-thiazolidin-5-ylidenemethyl)-4H-1,4-benzoxazin-3-one] | 49 |
| CC(C)(C)c1cc(CN2C(=O)COc3ccc(C=C4SC(=S)NC4=O)cc32)cc(C(C)(C)C)n1 [Example 45, 4-(2,6-Di-tert-butyl-pyridin-4-ylmethyl)-6-(4-oxo-2-thioxo-thiazolidin-5-ylidenemethyl)-4H-1,4-benzoxazin-3-one] | 336 |
| CCOC(=O)N1CCN(Cc2ccc(CN3C(=O)COc4ccc(C=C5SC(=O)NC5=O)cc43)cc2)CC1 [Example 240, 4-{4-[6-(2,4-Dioxo-thiazolidin-5-ylidenemethyl)-3-oxo-2,3-dihydro-1,4-benzoxazin-4-ylmethyl]-benzyl}-piperazine-1-carboxylic acid ethyl ester] | 32 |
| O=C1NC(=S)SC1=Cc1ccc2c(c1)N(Cc1ccc(CN3CCC4(CCCCC4)CC3)cc1)C(=O)CO2 [Example 238, 4-[4-(3-Aza-spiro[5.5]undec-3-ylmethyl)-benzyl]-6-(4-oxo-2-thioxo-thiazolidin-5-ylidenemethyl)-4H-benzo[1,4]oxazin-3-one] | 36 |
